# According to patent US8716292B2, “Riminophenazines with 2-(heteroaryl)amino substituents and their anti-microbial activity” (priority 2010, dated 2014):
# Tested on: Mycobacterium tuberculosis H37Rv strains
# Test: In vitro assay for antimicrobial susceptibility (microplate Alamar blue MIC)
# Type: cell-based
# Conditions: Mycobacterium tuberculosis, H37RV, 7H9, Alamar blue, inhibition ≧90%; read-out: MIC (μg/mL) against H37Rv
row,SMILES,MIC
1,"COC1CCC(/N=c2\cc3n(-c4ccc(F)cc4)c4ccccc4nc-3cc2Nc2ncccc2C#N)CC1 (centres unmarked) [TBI-1082, 5-(4-Fluorophenyl)-3-(4-methoxycyclohexyl)imino-2-(3-cyano-2-pyridyl)amino-3,5-dihydrophenazine]",0.029 µg/mL
2,"CC(C)/N=c1\cc2n(-c3ccc(F)c(F)c3)c3ccccc3nc-2cc1Nc1ncccc1C#N [TBI-1438, 5-(3,4-Difluorophenyl)-3-(1-methylethyl)imino-2-(3-cyano-2-pyridyl)amino-3,5-dihydrophenazine]",0.053 µg/mL
3,"COC1CCC(/N=c2\cc3n(-c4ccc(F)c(F)c4)c4ccccc4nc-3cc2Nc2cnccn2)CC1 (centres unmarked) [TBI-1445, 5-(3,4-Difluorophenyl)-3-(4-methoxycyclohexyl)imino-2-(pyrazin-2-yl)amino-3,5-dihydrophenazine]",0.056 µg/mL
4,"CC(C)/N=c1\cc2n(-c3ccc(F)c(F)c3)c3ccccc3nc-2cc1Nc1ncccn1 [TBI-1437, 5-(3,4-Difluorophenyl)-3-(1-methylethyl)imino-2-(pyrimidin-2-yl)amino-3,5-dihydrophenazine]",0.02 µg/mL

# Same assay, conditions: Mycobacterium tuberculosis, H37RV, in vitro, Mycobacterium tuberculosis H37Rv strains; read-out: MIC (μg/mL) against H37Rv
row,SMILES,MIC
1,"COc1ncccc1Nc1cc2nc3cc(C#N)ccc3n(-c3ccc(F)cc3)c-2c/c1=N\C1CCC(OC)CC1 (centres unmarked) [TBI-1065, 8-Cyano-5-(4-fluorophenyl)-3-(4-methyoxycyclohexyl)imino-2-(2-methoxy-3-pyridyl)amino-3,5-dihydrophenazine]",> 16 µg/mL
2,"COc1ccc(Nc2cc3nc4ccccc4n(-c4ccc(C)cc4)c-3c/c2=N\C2CCC(OC)CC2)cn1 (centres unmarked) [TBI-358, 5-(4-Methylphenyl)-3-(4-methoxycyclohexyl)imino-2-(6-methoxy-3-pyrid)amino-3,5-dihydrophenazine]",0.202 µg/mL
3,"COc1ccc(Nc2cc3nc4ccccc4n(-c4ccc(C)cc4)c-3c/c2=N\C2CCCCC2)cn1 [TBI-357, 5-(4-Methylphenyl)-3-cyclohexylimino-2-(6-methoxy-3-pyridyl)amino-3,5-dihydrophenazine]",0.228 µg/mL
4,"COc1ncccc1Nc1cc2nc3ccccc3n(-c3ccc(C(F)(F)F)cc3)c-2c/c1=N\C1CCOCC1 [TBI-701, 5-(4-Trifluoromethylphenyl)-3-(4-tetrahydropyranyl)imino-2-(2-methoxy-3-pyridyl)amino-3,5-dihydrophenazine]",0.016 µg/mL
5,"FC(F)(F)c1ccc(-n2c3c/c(=N\C4CCN(C5CCCC5)CC4)c(Nc4cccnc4)cc-3nc3ccccc32)cc1 [TBI-691, 5-(4-Trifluoromethylphenyl)-3-(N-cyclopentyl-4-piperidyl)imino-2-(3-pyridyl)amino-3,5-dihydrophenazine]",0.06 µg/mL
6,"COc1ncccc1Nc1cc2nc3ccccc3n(-c3ccccc3)c-2c/c1=N\C1CCN(CC(C)C)CC1 [TBI-064, 5-Phenyl-3-(N-isobutyl-4-piperidyl)imino-2-(2-methoxy-3-pyridyl)amino-3,5-dihydrophenazine]",0.057 µg/mL
7,"COc1ccc(Nc2cc3nc4ccccc4n(-c4ccccc4)c-3c/c2=N\C2CCC(OC)CC2)cn1 (centres unmarked) [TBI-514, 5-Phenyl-3-(4-methoxycyclohexyl)imino-2-(6-methoxy-3-pyridyl)amino-3,5-dihydrophenazine]",0.243 µg/mL
8,"Cc1ccc(Nc2cc3nc4ccccc4n(-c4ccccc4)c-3c/c2=N\C2CCN(CC(C)C)CC2)cn1 [TBI-068, 5-Phenyl-3-(N-isobutyl-4-piperidyl)imino-2-(6-methyl-3-pyridyl)amino-3,5-dihydrophenazine]",0.156 µg/mL
9,COC1CCC(/N=c2\cc3n(-c4ccc(F)cc4)c4ccccc4nc-3cc2Nc2cncc(C)c2)CC1 (centres unmarked) [TBI-1026],0.121 µg/mL
10,"COCC(C/N=c1\cc2n(-c3ccc(Cl)cc3)c3ccccc3nc-2cc1Nc1cccnc1OC)OC (centres unmarked) [TBI-872, 5-(4-Chlorophenyl)-3-(2,3-dimethoxy-1-propyl)imino-2-(2-methoxy-3-pyridyl)amino-3,5-dihydrophenazine]",0.06 µg/mL
11,"COC1CCC(/N=c2\cc3n(-c4ccc(C(F)(F)F)cc4)c4ccccc4nc-3cc2Nc2ccc(C)nc2)CC1 (centres unmarked) [TBI-695, 5-(4-Trifluoromethylphenyl)-3-(4-methoxycyclohexyl)imino-2-(6-methyl-3-pyridyl)amino-3,5-dihydrophenazine]",0.016 µg/mL
12,"Cc1ccc(-n2c3c/c(=N\C4CCCCC4)c(Nc4ccc(C)nc4)cc-3nc3ccccc32)cc1 [TBI-306, 5-(4-Methylphenyl)-3-cyclohexylimino-2-(6-methyl-3-pyridyl)amino-3,5-dihydrophenazine]",0.106 µg/mL
13,"Brc1ccc(-n2c3c/c(=N\C4CCCCC4)c(Nc4cccnc4)cc-3nc3ccccc32)cc1 [TBI-089, 5-(4-Bromophenyl)-3-cyclohexylimino-2-(3-pyridyl)amino-3,5-dihydrophenazine]",0.021 µg/mL
14,"COc1ccc(Nc2cc3nc4ccccc4n(-c4ccc(F)cc4)c-3c/c2=N\[C@H]2CC[C@H](OC)CC2)cn1 [TBI-933, 5-(4-Fluorophenyl)-3-(1′,4′-trans-4-methoxycyclohexyl)imino-2-(6-methoxy-3-pyridyl)amino-3,5-dihydrophenazine]",0.175 µg/mL
15,"COc1ncccc1Nc1cc2nc3ccc(F)cc3n(-c3ccc(OC(F)(F)F)cc3)c-2c/c1=N\C(C)C [TBI-858, 7-Fluoro-5-(4-trifluoromethoxyphenyl)-3-(1-methylethyl)imino-2-(2-methoxy-3-pyridyl)amino-3,5-dihydrophenazine]",0.08 µg/mL
16,"COC1CCC(/N=c2\cc3n(-c4ccc(F)c(F)c4)c4ccccc4nc-3cc2Nc2cccnc2)CC1 (centres unmarked) [TBI-1430, 5-(3,4-Difluorophenyl)-3-(4-methoxycyclohexyl)imino-2-(3-pyridyl)amino-3,5-dihydrophenazine]",0.059 µg/mL
17,COC1CCC(/N=c2\cc3n(-c4ccc(NC(C)=O)cc4)c4ccccc4nc-3cc2Nc2ccc(C)nc2)CC1 (centres unmarked) [TBI-1229],0.482 µg/mL

row,SMILES,MIC
1,"Cc1ccc(Nc2cc3nc4cc(F)ccc4n(-c4ccc(OC(F)(F)F)cc4)c-3c/c2=N\C2CCCCC2)cn1 [TBI-865, 8-Fluoro-5-(4-trifluoromethoxyphenyl)-3-cyclohexylimino-2-(6-methyl-3-pyridyl)amino-3,5-dihydrophenazine]",0.031 µg/mL
2,Cc1ncccc1Nc1cc2nc3ccccc3n(-c3ccccc3)c-2c/c1=N\C1CCC(O)CC1 (centres unmarked) [TBI-092],0.5 µg/mL
3,"Cc1cncc(Nc2cc3nc4ccccc4n(-c4ccc(C(F)(F)F)cc4)c-3c/c2=N\C2CCC2)c1 [TBI-726, 5-(4-Trifluoromethylphenyl)-3-cyclobutylimino-2-(5-methyl-3-pyridyl)amino-3,5-dihydrophenazine]",0.058 µg/mL
4,"Clc1ccc(-n2c3c/c(=N\C4CCC4)c(Nc4cncc(Br)c4)cc-3nc3ccccc32)cc1 [TBI-883, 5-(4-Chlorophenyl)-3-cyclobutylimino-2-(5-bromo-3-pyridyl)amino-3,5-dihydrophenazine]",0.03 µg/mL
5,"COc1ncccc1Nc1cc2nc3ccccc3n(-c3ccc(C(F)(F)F)cc3)c-2c/c1=N\C1CCC1 [TBI-728, 5-(4-Trifluoromethylphenyl)-3-cyclobutylimino-2-(2-methoxy-3-pyridyl)amino-3,5-dihydrophenazine]",0.033 µg/mL
6,"Cc1ccc(Nc2cc3nc4ccccc4n(-c4ccc(F)cc4)c-3c/c2=N\C2CC2)cn1 [TBI-908, 5-(4-Fluorophenyl)-3-cyclopropylimino-2-(6-methyl-3-pyridyl)amino-3,5-dihydrophenazine]",0.03 µg/mL
7,"CC(=O)Nc1ccc(Nc2cc3nc4ccccc4n(-c4ccc(F)cc4)c-3c/c2=N\C(C)C)cn1 [TBI-910, 5-(4-Fluorophenyl)-3-(1-methylethyl)imino-2-(6-acetamino-3-pyridyl)amino-3,5-dihydrophenazine]",0.147 µg/mL
8,"Cc1ccc(Nc2cc3nc4ccccc4n(-c4ccc(C(F)(F)F)cc4)c-3c/c2=N\C2CCOCC2)cn1 [TBI-696, 5-(4-Trifluoromethylphenyl)-3-(4-tetrahydropyranyl)imino-2-(6-methyl-3-pyridyl)amino-3,5-dihydrophenazine]",0.032 µg/mL
9,"CN1CCC(/N=c2\cc3n(-c4ccc(OC(F)(F)F)cc4)c4ccccc4nc-3cc2Nc2cccnc2)CC1 [TBI-159, 5-(4-Trifluoromethoxyphenyl)-3-(N-methyl-4-piperidyl)imino-2-(3-pyridyl)amino-3,5-dihydrophenazine]",0.25 µg/mL
10,"COc1ncccc1Nc1cc2nc3ccccc3n(-c3ccc(Cl)cc3)c-2c/c1=N\C(C)C [TBI-438, 5-(4-Chlorophenyl)-3-(1-methylethyl)imino-2-(2-methoxy-3-pyridyl)amino-3,5-dihydrophenazine]",0.03 µg/mL
11,"COc1ncccc1Nc1cc2nc3ccc(F)cc3n(-c3ccc(OC(F)(F)F)cc3)c-2c/c1=N\C1CCCCC1 [TBI-856, 7-Fluoro-5-(4-trifluoromethoxyphenyl)-3-cyclohexylimino-2-(2-methoxy-3-pyridyl)amino-3,5-dihydrophenazine]",0.029 µg/mL
12,"CC(C)/N=c1\cc2n(-c3ccccc3Cl)c3ccccc3nc-2cc1Nc1cccnc1 [TBI-890, 5-(2-Chlorophenyl)-3-(1-methylethyl)imino-2-(3-pyridyl)amino-3,5-dihydrophenazine]",0.476 µg/mL
13,"Fc1ccc(-n2c3c/c(=N\CCN4CCOCC4)c(Nc4cccnc4)cc-3nc3ccccc32)cc1 [TBI-680, 5-(4-Fluorophenyl)-3-(2-morpholinoethyl)imino-2-(3-pyridyl)amino-3,5-dihydrophenazine]",0.5 µg/mL
14,"Cc1cncc(Nc2cc3nc4ccccc4n(-c4ccccc4)c-3c/c2=N\C(C)C)c1 [TBI-081, 5-Phenyl-3-(1-methylethyl)imino-2-(5-methyl-3-pyridyl)amino-3,5-dihydrophenazine]",0.117 µg/mL
15,"COC1CCC(/N=c2\cc3n(-c4ccc(F)cc4)c4ccc(C#N)cc4nc-3cc2Nc2ccc(C)nc2)CC1 (centres unmarked) [TBI-1068, 8-Cyano-5-(4-fluorophenyl)-3-(4-methyoxycyclohexyl)imino-2-(6-methyl-3-pyridyl)amino-3,5-dihydrophenazine]",0.165 µg/mL
16,"Cc1ccc(Nc2cc3nc4ccccc4n(-c4ccc(Br)cc4)c-3c/c2=N\C2CCOCC2)cn1 [TBI-504, 5-(4-Bromophenyl)-3-(4-tetrahydropyranyl)imino-2-(6-methyl-3-pyridyl)amino-3,5-dihydrophenazine]",0.044 µg/mL
17,"COc1ncccc1Nc1cc2nc3ccccc3n(-c3ccccc3)c-2c/c1=N\C1CCN(C)CC1 [TBI-062, 5-Phenyl-3-(N-methyl-4-piperidyl)imino-2-(2-methoxy-3-pyridyl)amino-3,5-dihydrophenazine]",0.061 µg/mL
